Results on five substances are retold here after paper PMC4459106 (Scientific Reports, 2015).

For experiment [1], the system named is ERK2. As to conditions: cited from earlier work. The source says:
While the biological relevance of this finding is debatable, care should be taken while analyzing in vitro data from studies that employ F-site and D-site containing ligands simultaneously.

For experiment [2], the target named is T1, ppERK2 (D-recruitment site, DRS) (Rattus norvegicus, UniProt P63086).
T1 construct: made in house
Description: NMR 15N,1H TROSY titration of ppERK2 with peptide ligand (CSPs; DRS affinity by two-site fit). The class given is binding, rat (rat ERK2 numbering used throughout). As to conditions: 130 μM ppERK2, 50 mM HEPES pH 6.8, KIM15-31 up to 992.0 μM. How it is done:
Spectral perturbations on ppERK2 were assessed from ^15N, ^1H TROSY experiments at 600 MHz and 25.0 °C using 1024 and 128 complex points and sweep-widths of 15 and 33 ppm in the ^1H and ^15N dimensions, respectively. […] A 130 μM sample of ppERK2 in a buffer containing 50 mM HEPES pH 6.8, 150 mM NaCl, 200 μM EDTA and 2 mM DTT was titrated with the following amounts of KIM15-31: 49.2, 99,8, 149.0, 296.2, 450.6, 992.0 μM.

In experiment [3] the target is T2, ppERK2 (Rattus norvegicus, UniProt P63086).
T2 construct: made in house
Description: Fluorescence-based kinase assay, phosphorylation of ERK-sensor-D1 by ppERK2. The class given is biochemical, rat (rat ERK2 numbering used throughout). As to conditions: for Km: 2 nM ppERK2, 25 mM HEPES pH 7.5, 10 mM MgCl2, 28 °C, fluorescence 360/492 nm; for Vmax: 2 nM ppERK2, 25 mM HEPES pH 7.5, 28 °C. Here is the method: The ERK-sensor-D1 peptide[57] […] The reaction was initiated after 1 hour of pre-incubation at room temperature by adding 10 μL of 5 mM Mg^2+/ATP to 90 μL of assay mixture and the fluorescence intensity was recorded at each time point for a total of 6 minutes on a Fluorolog fluorimeter (Horiba Jobin Yvon) in quartz cuvettes (Starna Cells) with a 10 mm path length and a reaction volume of 100 μL. The sample was excited at 360 nm and fluorescence was monitored at 492 nm using excitation and emission slit widths of 3 nm. The change in fluorescence was related to the progression of the reaction using a previously determined conversion factor[58].

T2 sequence (P63086 whole entry): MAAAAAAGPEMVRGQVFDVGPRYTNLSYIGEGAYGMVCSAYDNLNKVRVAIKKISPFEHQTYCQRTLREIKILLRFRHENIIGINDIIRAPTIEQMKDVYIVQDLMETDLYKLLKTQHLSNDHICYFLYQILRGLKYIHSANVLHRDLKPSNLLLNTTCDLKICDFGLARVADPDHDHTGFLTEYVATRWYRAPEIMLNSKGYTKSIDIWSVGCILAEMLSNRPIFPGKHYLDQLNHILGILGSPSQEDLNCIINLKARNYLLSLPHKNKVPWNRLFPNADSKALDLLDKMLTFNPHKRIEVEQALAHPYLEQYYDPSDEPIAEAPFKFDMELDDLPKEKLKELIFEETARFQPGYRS
T1 sequence (P63086 whole entry): as above

For “PEA-15: anti-apoptotic small adaptor protein without canonical D-site or F-site sequences”, the “binding to ERK2” value in experiment [1] was “efficiently bind ERK2”.
Turning to “KIM15-31: DRS specific ligand (TLSLGAAMTQPPPEKTP; UniProt P35236 15-31, looked up, fragment)”, the “CSPs on titration of ppERK2 with KIM15-31” value in experiment [2] was “the only significant CSPs are seen at the DRS and no significant long-range perturbations including at the FRS, are noted”.
“QRKTLQRRNLKGLNLNL-X3-TGPLSPC-Sox-PF [ERK-sensor-D1]”: in experiment [3] (absence of Elk387-399), the Michaelis-Menten constant (Km) (commonly the concentration of substrate that gives half-maximal velocity) came to 10.1 ± 0.8 µM and the Vmax is 21.4 ± 0.5 nM phosphate/second. In experiment [3] (presence of 100 μM Elk387-399), the Km was found to be 22.7 ± 2.8 µM and the Vmax came to 23.4 ± 1.1 nM phosphate/second.
As for c-Fos: F-site containing c-Fos, in experiment [1] (F-site containing c-Fos, DRS-mutant vs native ERK2), the “increase in apparent KD of interaction with ppERK2 on DRS mutation” value was 2-3 -fold.
“Ets-1: transcription factor possessing neither a canonical D-site nor F-site”: the “binding to ERK2” value in experiment [1] was “efficiently bind ERK2”.
